Activity calls are given as the source filed them. No cut-off for these calls is given here.
How the values were obtained:
[1] = tested on: Lewis lung carcinoma; assay: Antitumor activity against mouse LLC allografted in ip dosed mouse assessed as tumor growth inhibition administered daily; format: functional, organism-based
[2] = Induction of apoptosis in rat IEC-18-13 cells assessed as apoptotic cells at 5 uM after 24 hrs by mitosensor dye-based fluorescence microscopy (reference value: 25%); format: functional
[3] = Induction of apoptosis in rat IEC-18-13 cells assessed as healthy cells at 5 uM after 24 hrs by mitosensor dye-based fluorescence microscopy (reference value: 75%); format: functional
[4] = tested on: Chorioallantoic membrane; assay: Antiangiogenic activity in fertilized chicken egg chorioallantoic membrane assessed as inhibition of blood vessel growth at 50 uM incubated for 2 days by dissecting microscopy relative to control; format: functional, tissue-based; details: Gallus gallus

Row | Compound | TGI [1] | Activity [2] [%] | Activity [3] [%] | growth inhibition (GI) [4] [%]
1 | NC(=O)c1nnsc1Nc1ccccc1 | Active | 78 | 22 | 
2 | NC(=O)c1nnsc1Nc1cccc2ccccc12 |  |  |  | 100

Source: ChEMBL document CHEMBL3727375, “Antiproliferative 1,2,3-thiadiazole compounds” (2007)
